# In patent publication US20240246964A1 (Arbutus Biopharma Corporation, priority 2021, published 2024):
# What was measured:
# [1] = target: PD-L1 His protein / PD-1 Fc protein (Homo sapiens (Human), UniProt Q9NZQ7); assay: HTRF Assay (PD-1/PD-L1 interaction); type: binding; conditions: PD-L1 His 6 nM, PD-1 Fc 6 nM
# human PD-L1 = human PD-L1 (Homo sapiens (Human), UniProt Q9NZQ7); assay: T cell activation luciferase reporter cell culture system (T Cell Activation Assay); type: cell-based; conditions: luciferase reporter assay; PD-L1 aAPC/CHO-K1 cells with PD-1 effector Jurkat T cells
# human PD-L1, sequence (Q9NZQ7 19-290): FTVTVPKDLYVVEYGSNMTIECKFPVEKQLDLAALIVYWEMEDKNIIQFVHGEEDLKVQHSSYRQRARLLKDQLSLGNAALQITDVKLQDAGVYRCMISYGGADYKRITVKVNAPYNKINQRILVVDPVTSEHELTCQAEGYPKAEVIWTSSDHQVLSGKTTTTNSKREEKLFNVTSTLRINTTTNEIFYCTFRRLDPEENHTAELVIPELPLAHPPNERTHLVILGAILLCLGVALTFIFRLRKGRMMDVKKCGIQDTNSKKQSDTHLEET
# PD-L1 His protein / PD-1 Fc protein, sequence (Q9NZQ7 19-238): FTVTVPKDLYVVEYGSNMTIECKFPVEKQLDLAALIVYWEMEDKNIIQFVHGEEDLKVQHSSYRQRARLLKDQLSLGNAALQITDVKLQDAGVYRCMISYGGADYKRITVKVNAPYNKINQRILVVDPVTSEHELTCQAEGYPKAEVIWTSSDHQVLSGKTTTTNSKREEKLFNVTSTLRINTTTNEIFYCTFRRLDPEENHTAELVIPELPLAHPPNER
Structure (SMILES),IC50 [1] [µM],EC50 (human PD-L1) [µM]
"COc1cc(-c2nccc(-c3ccnc(-c4cc(F)c(CNC[C@@H]5CCC(=O)N5)c(OC)c4)c3Cl)c2Cl)cc(F)c1CNC[C@@H]1CCC(=O)N1 [Compound 12, (5S,5′S)-5,5′-(((((3,3′-dichloro-[4,4′-bipyridine]-2,2′-diyl)bis(2-fluoro-6-methoxy-4,1-phenylene))bis(methylene))bis(azanediyl))bis(methylene))bis(pyrrolidin-2-one)]",0.0001,0.0671
"COc1cc(-c2nccc(-c3ccnc(-c4ccc5c(CNC[C@@H]6CCC(=O)N6)cn(C)c5c4)c3Cl)c2Cl)ccc1CNC[C@@H]1CCC(=O)N1 [Compound 14, (S)-5-(((4-(3,3′-dichloro-2′-(1-methyl-3-(((((S)-5-oxopyrrolidin-2-yl)methyl)amino)methyl)-1H-indol-6-yl)-[4,4′-bipyridin]-2-yl)-2-methoxybenzyl)amino)methyl)pyrrolidin-2-one]",0.0006,0.165
"Cn1cc(CNC[C@@H]2CCC(=O)N2)c2ccc(-c3nccc(-c4ccnc(-c5ccc6c(CNC[C@@H]7CCC(=O)N7)cn(C)c6c5)c4Cl)c3Cl)cc21 [Compound 15, (5S,5′S)-5,5′-(((((3,3′-dichloro-[4,4′-bipyridine]-2,2′-diyl)bis(1-methyl-1H-indole-6,3-diyl))bis(methylene))bis(azanediyl))bis(methylene))bis(pyrrolidin-2-one)]",0.107,10
"COc1cc(-c2nccc(-c3ccnc(-c4cnc5c(CNC[C@@H]6CCC(=O)N6)cn(C)c5c4)c3Cl)c2Cl)ccc1CNC[C@@H]1CCC(=O)N1 [Compound 16, (S)-5-(((4-(3,3′-dichloro-2′-(1-methyl-3-(((((S)-5-oxopyrrolidin-2-yl)methyl)amino)methyl)-1H-pyrrolo[3,2-b]pyridin-6-yl)-[4,4′-bipyridin]-2-yl)-2-methoxybenzyl)amino)methyl)pyrrolidin-2-one]",0.001,0.355
"COc1cc(-c2nccc(-c3cccc(-c4ccc5c(CNC[C@@H]6CCC(=O)N6)cn(C)c5n4)c3Cl)c2Cl)ccc1CNC[C@@H]1CCC(=O)N1 [Compound 17, (S)-5-((((6-(2-chloro-3-(3-chloro-2-(3-methoxy-4-(((((S)-5-oxopyrrolidin-2-yl)methyl)amino)methyl)phenyl)pyridin-4-yl)phenyl)-1-methyl-1H-pyrrolo[2,3-b]pyridin-3-yl)methyl)amino)methyl)pyrrolidin-2-one]",0.0024,0.0292
"COc1cc(-c2nccc(-c3cccc(-c4cc5c(c(OC)c4)CN(C[C@@H]4CCC(=O)N4)CC5)c3Cl)c2Cl)ccc1CNC[C@@H]1CCC(=O)N1 [Compound 18, (S)-5-((6-(2-chloro-3-(3-chloro-2-(3-methoxy-4-(((((S)-5-oxopyrrolidin-2-yl)methyl)amino)methyl)phenyl)pyridin-4-yl)phenyl)-8-methoxy-3,4-dihydroisoquinolin-2(1H)-yl)methyl)pyrrolidin-2-one]",0.0398,0.0756
"COc1nc(-c2cccc(-c3ccnc(-c4cnc5c(CNC6CCN(C(C)=O)CC6)cn(C)c5c4)c3Cl)c2Cl)ccc1CNC[C@@H]1CCC(=O)N1 [Compound 21, (S)-5-((((6-(3-(2-(3-(((1-acetylpiperidin-4-yl)amino)methyl)-1-methyl-1H-pyrrolo[3,2-b]pyridin-6-yl)-3-chloropyridin-4-yl)-2-chlorophenyl)-2-methoxypyridin-3-yl)methyl)amino)methyl)pyrrolidin-2-one]",0.0001,0.0758
"COc1nc(-c2cccc(-c3ccnc(-c4cnc5c(CNC[C@@H]6CCO6)cn(C)c5c4)c3Cl)c2Cl)ccc1CNC[C@@H]1CCC(=O)N1 [Compound 22, (S)-5-((((6-(2-chloro-3-(3-chloro-2-(1-methyl-3-(((((S)-oxetan-2-yl)methyl)amino)methyl)-1H-pyrrolo[3,2-b]pyridin-6-yl)pyridin-4-yl)phenyl)-2-methoxypyridin-3-yl)methyl)amino)methyl)pyrrolidin-2-one]",0.0003,0.135
"COc1cc(-c2nccc(-c3cccc(-c4ccc(CNC[C@@H]5CCC(=O)N5)c(OC)n4)c3Cl)c2Cl)cnc1CNC[C@@H]1CCC(=O)N1 [Compound 23, (S)-5-((((6-(2-chloro-3-(3-chloro-5′-methoxy-6′-(((((S)-5-oxopyrrolidin-2-yl)methyl)amino)methyl)-[2,3′-bipyridin]-4-yl)phenyl)-2-methoxypyridin-3-yl)methyl)amino)methyl)pyrrolidin-2-one]",0.0001,0.0363
"COc1nc(-c2cccc(-c3ccnc(-c4ccc5c(c4)N(C)CCN(C[C@H](C)O)C5)c3Cl)c2Cl)ccc1CNC[C@@H]1CCC(=O)N1 [Compound 24, (S)-5-((((6-(2-chloro-3-(3-chloro-2-(4-((S)-2-hydroxypropyl)-1-methyl-2,3,4,5-tetrahydro-1H-benzo[e][1,4]diazepin-8-yl)pyridin-4-yl)phenyl)-2-methoxypyridin-3-yl)methyl)amino)methyl)pyrrolidin-2-one]",0.0008,0.0872
"COc1nc(-c2cccc(-c3ccnc(-c4ccc5c(c4)OCCN(C[C@H](C)O)C5)c3Cl)c2Cl)ccc1CNC[C@@H]1CCC(=O)N1 [Compound 25, (S)-5-((((6-(2-chloro-3-(3-chloro-2-(4-((S)-2-hydroxypropyl)-2,3,4,5-tetrahydrobenzo[f][1,4]oxazepin-8-yl)pyridin-4-yl)phenyl)-2-methoxypyridin-3-yl)methyl)amino)methyl)pyrrolidin-2-one]",0.0005,0.334
"COc1nc(-c2cccc(-c3ccnc(-c4ccc5c(c4)OCCNC5)c3Cl)c2Cl)ccc1CNC[C@@H]1CCC(=O)N1 [Compound 26, (S)-5-((((6-(2-chloro-3-(3-chloro-2-(2,3,4,5-tetrahydrobenzo[f][1,4]oxazepin-8-yl)pyridin-4-yl)phenyl)-2-methoxypyridin-3-yl)methyl)amino)methyl)pyrrolidin-2-one]",0.0002,0.0773
"COc1nc(-c2cccc(-c3ccnc(-c4ccc5c(CNC6CCN(C(C)=O)CC6)cn(C)c5c4)c3Cl)c2Cl)ccc1CNC[C@@H]1CCC(=O)N1 [Compound 28, (S)-5-((((6-(3-(2-(3-(((1-acetylpiperidin-4-yl)amino)methyl)-1-methyl-1H-indol-6-yl)-3-chloropyridin-4-yl)-2-chlorophenyl)-2-methoxypyridin-3-yl)methyl)amino)methyl)pyrrolidin-2-one]",0.0012,0.0484
"COc1nc(-c2cccc(-c3ccnc(-c4ccc5c(CNCCO)cn(C)c5c4)c3Cl)c2Cl)ccc1CNC[C@@H]1CCC(=O)N1 [Compound 29, (S)-5-((((6-(2-chloro-3-(3-chloro-2-(3-(((2-hydroxyethyl)amino)methyl)-1-methyl-1H-indol-6-yl)pyridin-4-yl)phenyl)-2-methoxypyridin-3-yl)methyl)amino)methyl)pyrrolidin-2-one]",0.0011,0.094
"COCCNCc1cn(C)c2cc(-c3nccc(-c4cccc(-c5ccc(CNC[C@@H]6CCC(=O)N6)c(OC)n5)c4Cl)c3Cl)ccc12 [Compound 30, (S)-5-((((6-(2-chloro-3-(3-chloro-2-(3-(((2-methoxyethyl)amino)methyl)-1-methyl-1H-indol-6-yl)pyridin-4-yl)phenyl)-2-methoxypyridin-3-yl)methyl)amino)methyl)pyrrolidin-2-one]",0.0154,0.1
